Laboratory results published in patent US20200247812A1 (Integral Biosciences Private Limited, priority 2018, published 2020).
Structures can show the parent of a compound that is named as a salt.

Assays:
[1] = molecular target: T1, ALK 5 (Homo sapiens, UniProt P36897); test: In vitro kinase assay (ALK5 IC50, LanthaScreen Terbium labeled TR-FRET); type: biochemical; settings: TGF-β kinase 6 nM, ATP 10 μM, read-out: Enzyme Activity ALK 5 IC50
T1 sequence (P36897 34-503): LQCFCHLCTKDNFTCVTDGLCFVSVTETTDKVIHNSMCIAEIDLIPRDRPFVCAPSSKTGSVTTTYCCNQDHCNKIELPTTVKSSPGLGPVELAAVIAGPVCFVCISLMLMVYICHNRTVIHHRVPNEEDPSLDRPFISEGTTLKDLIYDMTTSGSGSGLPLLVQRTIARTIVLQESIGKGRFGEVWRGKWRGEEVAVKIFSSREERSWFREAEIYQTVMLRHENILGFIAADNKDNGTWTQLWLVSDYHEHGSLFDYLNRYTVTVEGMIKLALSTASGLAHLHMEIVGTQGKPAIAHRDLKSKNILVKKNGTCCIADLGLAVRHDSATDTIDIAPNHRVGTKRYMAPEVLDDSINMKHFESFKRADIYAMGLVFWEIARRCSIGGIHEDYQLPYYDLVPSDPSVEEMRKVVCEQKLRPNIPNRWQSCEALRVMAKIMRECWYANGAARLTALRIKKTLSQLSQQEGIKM
How it was run: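 LanthaScreen Tb TR-FRET: ALK5 (6 nM) preincubated 10 min with 3-fold diluted compounds, then 10 μM ATP and 200 nM fluorescent PolyGT substrate added for 1 h at room temperature. Stopped with EDTA/Tb antibody; 520/495 nm emission read. IC50 from four-parameter fit versus DMSO and no-enzyme controls.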

[2] = test system: HCT116; test: Cell viability assay (resazurin), HCT116; type: cell-based; settings: Homo sapiens, HCT-116, 72-144 hr
Protocol: (§1) Different cell lines such as pancreatic, (MIA PaCa-2; ATCC®CRL-1420™ & and Panc-1; CRL-1469™), liver carcinoma (HepG2; ATCC® HB-8065™), lung epithelial carcinoma (A549; ATCC® CCL-185™) and others were seeded in their respective medium (DMEM, Cat #10569044, MEM, Cat #41090036; RPMI, Cat #22400089; all with 10% FBS, Gibco, ThermoFisher) at a cell count of 3000 cells per 100 μl per well in a 96 well edge plate (167425; ThermoFisher). Cells were allowed to grow at 37° C. for 24 hr in 5% CO2 (culture conditions) in a Nuaire incubator (humidified). Serially diluted compounds (100 μl) were added to the culture plate 24 hr later and the cultures were further incubated in culture conditions for specified time depending on doubling time of specific cell line (ranging from 72-144 hr). Experiment was terminated at the completion of incubation time with the drug by replacing the medium with 100 μl of 1 mM of resazurin (R7017; Sigma) prepared in respective culture medium and the plates were further incubated in culture conditions for 4 hr. Fluorescence was then measured using a multimodal plate reader (Biotek Synergy Neo) at an excitation wavelength of 535 nm and emission wavelength of 590 nm to obtain relative fluorescence units. Data analysis was done by subtracting the background fluorescence (only medium blank) value from each reading and then normalizing with the vehicle control (DMSO treated cells) to obtain percent survival/proliferation. Percent survival at different doses was used to calculate IC50 by fitting the curve to the “four-parameter variable slope logistic model” using Prism Graph Pad.

[3] = test system: A549; test: Cell viability assay (resazurin), A549; type: cell-based; settings: Homo sapiens, 72-144 hr
Protocol: as §1

[4] = test system: HepG2; test: Cell viability assay (resazurin), HepG2; type: cell-based; settings: Homo sapiens, 72-144 hr
Protocol: as §1

[5] = test system: MDA_MB-231; test: Cell viability assay (resazurin), MDA_MB-231; type: cell-based; settings: Homo sapiens, MDA-MB-231, 72-144 hr
Protocol: as §1

[6] = test system: 22Rv1; test: Cell viability assay (resazurin), 22Rv1; type: cell-based; settings: Homo sapiens, 72-144 hr
Protocol: as §1

[7] = test system: A427; test: Cell viability assay (resazurin), A427; type: cell-based; settings: Homo sapiens, A-427, 72-144 hr
Protocol: as §1

[8] = test system: AsPC-1; test: Cell viability assay (resazurin), AsPC-1; type: cell-based; settings: Homo sapiens, ASPC1, 72-144 hr
Protocol: as §1

[9] = test system: THP1; test: Cell viability assay (resazurin), THP1; type: cell-based; settings: Homo sapiens, THP-1, 72-144 hr
Protocol: as §1

[10] = test system: Panc-10.05; test: Cell viability assay (resazurin), Panc-10.05; type: cell-based; settings: Homo sapiens, Panc1005, 72-144 hr
Protocol: as §1

[11] = test system: human PBMC's; test: Viability in CD3e/CD28 activated human PBMC's (resazurin); type: cell-based; settings: 72 hr
Protocol: IC50 values of compounds for determining viability in CD3e/CD28 activated human PBMC's (hPBMC-34033, Cat # CC-2702; Lonza) cultured in LGM3 medium, Cat # CC #3211; Lonza). Human PBMC's (0.25×10^6 cells/well) were activated with Anti-human CD3e (0.5 μg/ml, coated overnight at 4° C.; Cat #16-0037-81, eBioscience) and then incubated with serial dilutions of compounds (3 fold, 8 point dose response starting at 30 μM) for 30 min at 37° C., 5% CO2 in an incubator (cell culture conditions) prior to treating them with Anti-human CD28 (0.25 μg/ml soluble; Cat #16-0289-81, eBiosciences). Human PBMC's were further incubated under cell culture conditions for 72 hr following which experiment was terminated by replacing the medium with 100 μl of 1 mM of resazurin (R7017; Sigma) prepared in culture medium and the plates were further incubated in culture conditions for 4 hr. Fluorescence was then measured using a multimodal plate reader (Biotek Synergy Neo) at an excitation wavelength of 535 nm and emission wavelength of 590 nm to obtain relative fluorescence units. Data analysis was done by subtracting the background fluorescence (only medium blank) value from each reading and then normalizing with the vehicle control (DMSO treated cells) to obtain percent survival/proliferation. Percent survival at different doses was used to calculate IC50 by fitting the curve to the “four-parameter variable slope logistic model” using Prism Graph Pad.

[12] = test system: phosphorylation of Smad-2 in THP-1 cells; test: Inhibition of phosphorylation of Smad-2 in THP-1 cells (Phospho-Smad2 ELISA); type: cell-based
[13] = test system: Panc-1; test: Cell viability assay (resazurin), Panc-1; type: cell-based; settings: Homo sapiens, 72-144 hr
Protocol: Different cell lines such as pancreatic, (MIA PaCa-2; ATCC®CRL-1420™ & and Panc-1; CRL-1469™), liver carcinoma (HepG2; ATCC® HB-8065™), lung epithelial carcinoma (A549; ATCC® CCL-185™) and others were seeded in their respective medium (DMEM, Cat #10569044, MEM, Cat #41090036; RPMI, Cat #22400089; all with 10% FBS, Gibco, ThermoFisher) at a cell count of 3000 cells per 100 μl per well in a 96 well edge plate (167425; ThermoFisher). Cells were allowed to grow at 37° C. for 24 hr in 5% CO2 (culture conditions) in a Nuaire incubator (humidified). Serially diluted compounds (100 μl) were added to the culture plate 24 hr later and the cultures were further incubated in culture conditions for specified time depending on doubling time of specific cell line (ranging from 72-144 hr). […] Fluorescence was then measured using a multimodal plate reader (Biotek Synergy Neo) at an excitation wavelength of 535 nm and emission wavelength of 590 nm to obtain relative fluorescence units. Data analysis was done by subtracting the background fluorescence (only medium blank) value from each reading and then normalizing with the vehicle control (DMSO treated cells) to obtain percent survival/proliferation. […]

[14] = test system: MCF7; test: Cell viability assay (resazurin), MCF7; type: cell-based; settings: Homo sapiens, 72-144 hr
Protocol: as §1

[15] = test system: phosphorylation of Smad-2 in THP-1 cells; test: Inhibition of phosphorylation of Smad-2 in THP-1 cells (Phospho-Smad2 ELISA); type: cell-based; settings: 1.5 h, human TGF-β 20 ng/ml, 90 min, read-out: pSmad2 IC50
Protocol: IC50 values of compounds for determining inhibition of phosphorylation of Smad-2 in THP-1 cells (ATCC, Cat # ATCC® TIB-202™) cultured in RPMI medium, (Cat #22400089; with 10% FBS, Gibco, ThermoFisher). THP-1 cells (1.0×10^6 cells/well; 6 well plate) were incubated with serial dilutions of compounds (3 fold, 5 point dose response starting at 10 μM) for 60 min at 37° C., 5% CO2 in an incubator (cell culture conditions) prior to treating them with Recombinant Human TGF-β (20 ng/ml soluble; Cat #100-21, Peprotech) for 90 min. The cells were then pelleted and processed for protein estimation and evaluation of pSmad using ELISA kit from Cell Signaling (PathScan(R) Phospho-Smad2 (Ser465/467) Sandwich ELISA; Cat #7348C) as per manufacturer's protocol. Data analysis was done by subtracting the background absorbance (only negative control) value from each reading and then normalizing with the vehicle control (DMSO treated cells) to obtain percent levels of pSmad-2. Percent inhibition thus obtained (by subtracting expression levels of pSmad from 100) at different doses was used to calculate IC50 by fitting the curve to the “four-parameter variable slope logistic model” using Prism Graph Pad.

Work on `CN(C)c1[nH]c(=O)c(-c2cc(Cl)ccc2F)cc1Nc1ccnc2[nH]ccc12` [Compound 1.12, 5-((1H-pyrrolo[2,3-b]pyridin-4-yl)amino)-3-(5-chloro-2-fluorophenyl)-6-(dimethylamino)pyridin-2-ol hydrochloride] yielded an IC50 [1] of at most 500 nM, an IC50 [2] of 2640 nM and an IC50 [3] of 2760 nM. The IC50 [4] was 2640 nM, the IC50 [5] was 2750 nM and the IC50 [6] was 1530 nM. For the same molecule, the IC50 [7] was 3100 nM, the IC50 [8] was 1820 nM and the IC50 [9] was 635 nM. The IC50 [10] was 2200 nM, the IC50 [11] was 18200 nM and the “% Inhibition of pSmad2” value ([12]; 3 μg) was 51.6%. The “% Inhibition of pSmad2” value ([12]; 10 μg) was 48.4%.
In the case of `CC(C)c1[nH]c(=O)c(-c2cc(Cl)ccc2F)cc1Nc1ccncc1C(N)=O` [Compound 1.43, 4-((5-(5-chloro-2-fluorophenyl)-2-isopropyl-6-oxo-1,6-dihydropyridin-3-yl)amino)nicotinamide], the IC50 [1] is reported as at most 500 nM, the IC50 [3] is reported as over 30000 nM and the IC50 [4] is reported as over 30000 nM. For the same molecule, the IC50 [13] was over 30000 nM, the IC50 [5] was over 30000 nM and the IC50 [6] was over 30000 nM. For the same molecule, the IC50 [7] was over 30000 nM, the IC50 [14] was over 10000 nM and the IC50 [11] was over 30000 nM.
Work on `CC(C)c1[nH]c(=O)c(-c2cc(Cl)ccc2F)cc1Nc1ccnc2c1CC(=O)N2` [Compound 1.61, 4-((5-(5-chloro-2-fluorophenyl)-2-isopropyl-6-oxo-1,6-dihydropyridin-3-yl)amino)-1,3-dihydro-2H-pyrrolo[2,3-b]pyridin-2-one] yielded an IC50 [1] of at most 500 nM, an IC50 [2] of over 30000 nM and an IC50 [4] of over 30000 nM. The IC50 [5] was over 30000 nM, the IC50 [8] was over 30000 nM and the IC50 [14] was over 30000 nM. The IC50 [15] was 1330 nM.
